Source: US10308620B2, “Muscarinic M1 receptor positive allosteric modulators” (SUVEN LIFE SCIENCES LIMITED, priority 2015, dated 2019)

What was measured:
[1] = Rodent brain penetration study; format: in vivo; conditions: rat, oral, 3 mg/kg, p.o., male Wistar rats, read-out: Single dose Rat Brain Penetration (Cb/Cp)
Description: Rodent Brain Penetration Study
Male Wistar rats (260±40 grams) were used as experimental animals. Three animals were housed in each cage. Animals were given water and food ad libitum throughout the experiment and maintained on a 12 hours light/dark cycle.
Brain penetration was determined in discrete manner in rats. One day prior to dosing day, male Wistar rats were acclimatized and randomly grouped according to their weight. At each time point (0.50, 1 and 2 hours) n=3 animals were used.
The test compounds were suitably preformulated and administered orally at (free base equivalent) 3 mg/kg. Blood samples were removed via cardiac puncture by using isoflurane anesthesia. The animals were sacrificed to collect brain tissue. Plasma was separated and brain samples were homogenized and stored frozen at −20° C. until analysis. The concentrations of the test compounds in plasma and brain were determined using LC-MS/MS method.
The test compounds were quantified in plasma and brain homogenate by qualified LC-MS/MS method using suitable extraction technique. The test compounds were quantified in the calibration range of 1-500 ng/mL in plasma and brain homogenate. Study samples were analyzed using calibration samples in the batch and quality control samples spread across the batch. Extent of brain-plasma ratio was calculated (Cb/Cp).

[2] = Rodent pharmacokinetic study; format: in vivo, rat; conditions: male Wistar rats
Procedure, shortened: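 Male Wistar rats (260±50 g, jugular-cannulated, n=3/group) dosed 3 mg/kg p.o. (fasted overnight) or 1 mg/kg i.v. Plasma sampled 0.08–24 h, quantified by LC-MS/MS (range ~1-1000 ng/mL). Cmax, Tmax, AUCt, T1/2, clearance, Vz and bioavailability derived by non-compartmental analysis.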

[3] = tested on: rats; test: Modulation of cerebral blood flow in frontal cortex (Laser Doppler); format: in vivo, rat; conditions: intravenous, anaesthetized rats; FIG. 6
Description: Modulation of Cerebral Blood Flow in Frontal Cortex:
The effect of test compound on modulation of cerebral blood flow was evaluated using rats.
Rats were acclimatized to the laboratory environment for at least 7 days. Rats (300-350 grams) were housed in a group of four in a controlled environment (Temp=21±3° C.; Humidity=30-70%) and maintained on a 12-hour light/dark cycle with lights on at 07:00 AM. Food and water was provided ad libitum.
Rats were anaesthetized with 12% urethane (i.p.). Animal's body core temperature was maintained at 37° C. via a heating pad and rectal temperature probe. A small incision was made at one of the ventral side of the hind limb and the femoral vein was cannulated with PE10 tubing for drug application. Then animal was placed into a stereotaxic frame and a midline incision was made to expose the skull. A burr hole was drilled over the frontal cortex (stereotaxic coordinates 1 mm anterior and 4 mm lateral to bregma). Oxygen was supplied through the nose cone of the seterotaxic apparatus which was connected to the controlled gaseous supplier with a flow of 200 mL/minute. Laser Doppler probe (AD Instruments Inc) was placed over the hole to monitor cerebral blood flow. […] Data obtained was calculated as percent increase relative to resting basal blood flow level. […]

[4] = tested on: soluble amyloid precursor protein α (sAPPα); test: Cortical sAPPα levels in mice brain (ELISA); format: in vivo; conditions: male C57BL/6J mice, 10 mg/kg, i.p., sixty minutes post treatment; FIG. 4
Description: Modulation of Soluble Amyloid Precursor Protein α (sAPPα) Levels in Cortex
Estimation of Cortical sAPPα Levels in Mice Brain
Male C57BL/6J mice ([…]) were randomly divided (n=8 group) into five groups. Control group of mice were intraperitoneally (i.p.) administered with vehicle (99.75% of 0.25% HEC HHX+0.25% tween 80) and the treatment group of mice received a single intraperitoneal injection of example 18 (dose volume of 10 mL/kg). Mice were sacrificed by cervical dislocation at 60 minutes after administration of test compound. Brains were quickly isolated and the cortex was dissected at −20° C. The cortex was immediately kept on a dry ice and weighed before being stored at −80° C. until quantification of sAPPα using Enzyme-linked immunosorbent assay (ELISA).
• 1. […]
To investigate the role of an acute treatment of test compound on sAPPα levels, the expression of this protein was measured in homogenates obtained from the cortex of treated and untreated rats by employing ELISA assay. […]
Statistical analyses were performed using the Graph Pad Prism (Version 4). Results are expressed as Mean±SEM levels of sAPPα expressed as percentage of control values (rats treated with vehicle). Statistical significance after treatment was assessed using One-Way ANOVA followed by Dunnett's post test and the significance level was set below p value less than 0.05.

[5] = rat, plasma, iv, 1 mg/kg i.v. (bolus)
[6] = rat, plasma, 3 mg/kg oral (gavage)

In the case of `O=C(N[C@H]1CCCC[C@@H]1O)C1=CN(Cc2cccc(F)c2F)c2ccccc2O1` [Example 18, N-(cis-1S, 2S-2-Hydroxycyclohexyl)-4-(2,3-difluorobenzyl)-4H-benzo[1,4]oxazine-2-carboxamide], the Kp [1] is reported as 2.27 ± 0.64, the AUC0-t ([2]; 1 mg/kg i.v. (bolus)) is reported as 929 ± 27 ng·h/mL and the AUC0-t ([2]; 3 mg/kg oral (gavage)) is reported as 2070 ± 839 ng·h/mL. For the same compound, the clearance [2, 5] was 17 ± 1 mL/min/kg, the half-life [2, 5] was 2.1 ± 0.1 h and the Vd ([2]; rat, plasma, iv, 1 mg/kg i.v. (bolus), read-out: Vz) was 3.2 ± 0.1 L/kg. The Cmax [2, 6] was 477 ± 96 ng/mL, the Tmax [2, 6] was 0.42 ± 0.14 h and the half-life [2, 6] was 3.9 ± 0.8 h. The bioavailability ([2]; rat, plasma, 3 mg/kg oral vs 1 mg/kg i.v.) was 74 ± 30%, the “cerebral blood flow in the frontal cortex” value [3] was “significantly increased” and the “mean increase in cortical sAPPα levels” value [4] was 38%.
